In data set [1] the test system is Ki67 and PCNA mRNA expression in primary podocytes. The data set is described as follows: RT-PCR of proliferation markers Ki67 and PCNA in primary podocyte cultures. The format is cell-based, mouse. How it is done:
After 4 days of primary culture, podocytes were trypsinized then plated into μ-Dish 35 mm high with Culture-Insert (Ibidi). Ibidi's wounding inserts were used for cell migration studies. The coverage of the 500-μm gap was assessed after 12 hours of culture and podocyte migration area was quantified using ImageJ software. The effects of HB-EGF (10 ng/mL, Preprotech) or AG1478 (1 μM, Calbiochem) or anti-mIL-6 monoclonal antibody MP5-20F3 (10 μg/mL, eBiosciences) or Stattic (2 μM, Calbiochem) on differentiated podocytes was applied during 16 hours. After stimulation, podocytes were scrapped in Phosphosafe buffer for protein extraction or in RLT buffer for total RNA extraction. Total RNA extraction of mice glomeruli was performed using an Rneasy Minikit (Qiagen) and reverse transcribed into cDNA using the Quantitect Reverse Transcription kit (Qiagen) according to the manufacturer's protocol. cDNA and standard were amplified in Maxima SYBR Green/Rox qPCR mix (Fermentas) on an ABI PRISM thermo cycler. The comparative method of relative quantification (2-ΔΔCT) was used to calculate the expression level of each target gene, normalized to GAPDH. The oligonucleotide sequences are available upon request. The data are presented as the fold change in gene expression. […] Anti-miR-Control#1 was used as control (All from Ambion, 50 nM).

In another data set the test system is phospho-STAT3 (Tyr705). The data set is described as follows: Western blot of phospho-STAT3 in glomeruli / kidney cortex of NTS-challenged mice. The format is in vivo. The conditions noted are these: Stattic 25 mg/kg i.p. every other day, started with NTS; 129S2 mice; after 10 days of RPGN; vs vehicle. How it is done:
Podocyte-specific disruption of Stat3 mice were generated by crossing podocin-Cre positive mice (63) with Stat3 floxed mice (64) on C57BL6/J background. Their age-matched littermates with no deletion of Stat3 in any cells are considered as controls. […] Stattic (25 mg/kg) was administered in i.p. way every other day for 10 days. 10 weeks old 129S2/SvPasCr male mice were randomly treated with Stattic and were compared to vehicle-treated (DMSO) littermates.
The glomerulonephritis was induced on male mice (10-12 weeks of age) by intravenous injection of 15 μL of sheep anti-glomerular basement membrane (GBM) nephrotoxic serum (NTS), which was diluted with 85 μL of sterile phosphate buffer solution. Serum injections were repeated twice (on days 2 and 3) at 6 μL/g of body weight and 7 μL/g respectively.
Mouse kidneys were extracted, minced, and digested in 2 mg/mL collagenase I solution (Gibco) in RPMI 1640 (Invitrogen) at 37° C. for 3 minutes, then filtered through a 70-μm cell strainer and one more through a 40-μm cell strainer. […] Podocyte outgrowth area was quantified at day 4 using ImageJ software.
After extraction from glomeruli or podocytes with lysis buffer, proteins were quantified by BCA protein assay kit (iNtRON Biotechnology). […] Protein loading was monitored by using the rat anti-tubulin antibody (Abeam). […] Densitometric analysis with ImageJ software was used for quantification.
Background: A western blot detects proteins with antibodies after separation by electrophoresis.

For a further data set, the system named is miR-92a. Briefly: RT-qPCR for miR-92a in transfected primary podocytes. As to conditions: transfection with anti-miR-92a inhibitor (Ambion, 50 nM); normalized to U6. Type of data set: cell-based, mouse. (Quantitative PCR measures a nucleic acid by following its amplification.)
In a further data set the test system is STAT3. Briefly: STAT3 protein level in anti-miR-92a transfected podocytes. As to conditions: data not shown. The format is cell-based, mouse. The method, then: Anti-miR-Control#1 was used as control (All from Ambion, 50 nM).
In the next data set the test system is p57. The data set is described as follows: p57 immunostaining on kidney sections of NTS-challenged mice. As to conditions: NTS-induced decrease; anti-miR-92a administration. The format is in vivo. The method, then: Deparaffinized kidney sections were incubated for 30 minutes at 95° C. in the target retrieval solution (S1699, Dako), then in peroxidase blocking reagent (S2001, Dako), blocked in PBS containing 5% BSA and immunostained against phospho-STAT3 (Tyr705) (Cell Signaling Technology) and phospho-STAT3 (Tyr705) (Millipore), STAT3 (Cell Signaling Technology), podocalyxin (R&D systems), Ki-67 (Abeam) and p57 (Santa Cruz Technology). […] For STAT3 and podocalyxin immunofluorescence, primary antibody incubation was followed by a secondary rabbit anti-goat IgG AF488-conjugated antibody (Invitrogen, 1:400) and a secondary rabbit anti-goat IgG AF594-conjugated antibody (Invitrogen, 1:400) respectively. Podocyte culture cells were immunostained against podocin (ab50339 Abeam), nephrin (ab58968 Abeam), WTI (ab15249 Abeam) or p57 (Santa Cruz Biotechnology). The nuclei were stained using DAPI. Images were obtained with an Axioimager Z1 apotome (Zeiss).
For preventive strategy, antagomiR treatment (12 mg/kg) started 3 days before NTS injection. AntagomiRs (VBC biotech, Vienna) were delivered by retro-orbital i.v. injections under brief anesthesia. Second and third injections were performed on days 1 and 3 with NTS injection. For curative strategy, antagomir were injected on days 4, 5 and 8 after NTS. A scramble antagomiR (Antagomir-Control) was used as control. […]

The test system of data set [2] is miR-17, miR-18a, miR-19a and miR-20a. The data set is described as follows: RT-qPCR of other miR-17-92 cluster members in isolated glomeruli of NTS-challenged mice. Type of data set: in vivo. The conditions noted are these: antagomiR 12 mg/kg i.v., preventive strategy; 10 days after NTS. How it is done: […] U6 snRNA was used as endogenous control.
For preventive strategy, antagomiR treatment (12 mg/kg) started 3 days before NTS injection. AntagomiRs (VBC biotech, Vienna) were delivered by retro-orbital i.v. injections under brief anesthesia. Second and third injections were performed on days 1 and 3 with NTS injection. For curative strategy, antagomir were injected on days 4, 5 and 8 after NTS. A scramble antagomiR (Antagomir-Control) was used as control. The sequences were obtained from previously published manuscript (66). In the miR-92 antagomir and control antagomir, the 2′O RNA base are methylated followed by first two bases and last 3 bases are phosphorothiated to increase the stability of antagomir from degradation. In addition, a cholesterol-TEG was added at the 3′ for easy entry of antagomir into the cells. AntagomiR-Control (SEQ ID NO: 7, anti-miR-ctrl): 5′-[…]-3′ and antagomiR-92a (SEQ ID NO: 8, anti-miR-92a): 5′-[…]-3′ as shown to be effective after in vivo administration in kidneys (34, 67). Saline-treated mice were used as control of the scramble antagomiR.

`O=[N+]([O-])c1ccc2c(c1)S(=O)(=O)C=C2` [Stattic]: in data set [1] (Stattic 2 μM for 16 hours), the “Ki67 expression in primary podocytes” value was “markedly blunted” and the “PCNA expression in primary podocytes” value was “markedly blunted”. Moreover, the “STAT3 (Tyr705) phosphorylation in glomeruli” value in the data set with phospho-STAT3 (Tyr705) is listed as “significantly reduced”.
Take “anti-miR-92a: 2′O-methylated, end-phosphorothioated antagomir with 3′ cholesterol-TEG, SEQ ID NO: 8, 5′-CAGGCCGGGACAAGUGCAAUA-3′ (VBC biotech) (listed as RNA, chemistry not fully specified)”: the “Ki67 mRNA level” value in data set [1] (anti-miR-92a transfected (50 nM) primary podocytes, vs control cells or anti-miR control) was “decrease”. Also, the “miR-92a expression in primary culture of podocytes, change” value in the data set on miR-92a was −71%. Moreover, in the data set with STAT3, the STAT3 protein level result is listed as “did not affect”. For the same compound, the “p57 expression in glomeruli” value with p57 is “rescued”. Further, the “levels of others miR of 17-92 cluster in isolated glomeruli” value in data set [2] is reported as “without modify”.

Source of the values: US10344279B2, “Methods for the prevention and the treatment of extracapillary glomerulonephritis” (INSERM (Institut National de la Sante et de la Recherche …, priority 2014, dated 2019).
